In patent publication US20080312085A1, “Pesticidal Compositions” (priority 2005, published 2008) one finds melting point and mortality data, which are given here for 14 compounds.

In data set [1] the test system is Cotton Aphid (Aphis gossypii). The data set can be described thus: Cotton aphid test, cotyledons of infested cotton plants dipped. Format: in vivo. Conditions: 120 h, aphid mortality determined after 5 days, read-out: mortality in comparison with untreated controls. An excerpt:
B.1 Cotton Aphid (Aphis gossypii)
(§1) The active compounds were formulated in 50:50 acetone:water and 100 ppm Kinetica™ surfactant.
Cotton plants in the cotyledon stage (variety ‘Delta Pine’) are infested with approximately 100 laboratory-reared aphids by placing infested leaf sections on top of the test plants. The leaf sections are removed after 24 hr. The cotyledons of the intact plants are dipped into gradient solutions of the test compound. Aphid mortality on the treated plants, relative to mortality on check plants, is determined after 5 days.

Data set [2] deals with Green Peach Aphid (Myzus persicae). The data set can be described thus: Green peach aphid test, leaves of infested pepper plants dipped. The class given is in vivo. Conditions: 120 h, aphid mortality determined after 5 days, read-out: mortality in comparison with untreated controls.
Text: B.2 Green Peach Aphid (Myzus persicae)
as §1
Pepper plants in the 2nd leaf-pair stage (variety ‘California Wonder’) are infested with approximately 40 laboratory-reared aphids by placing infested leaf sections on top of the test plants. The leaf sections are removed after 24 hr. The leaves of the intact plants are dipped into gradient solutions of the test compound. Aphid mortality on the treated plants, relative to mortality on check plants, is determined after 5 days.

Data set [3] relates to Cowpea Aphid (aphis craccivora). The experiment in a line: Cowpea aphid test, colonized potted cowpea plants sprayed. To be noted: population reduction recorded after 24, 72 and 120 hours, read-out: mortality in comparison with untreated controls. Format: in vivo. How it is done: B.3 Cowpea Aphid (aphis craccivora)
The active compounds were formulated in 50:50 acetone:water. Potted cowpea plants colonized with 100-150 aphids of various stages were sprayed after the pest population has been recorded. Population reduction was recorded after 24, 72, and 120 hours.

Data set [4] relates to Vetch Aphid (Megoura viciae). The experiment in a line: Vetch aphid test, sprayed bean leaf disks in microtiterplates. Format: in vivo. To be noted: foliar, 144 h, bean leaf disks sprayed with 2.5 μl, 6 days, read-out: mortality in comparison with untreated controls. How it is done:
B.4 Vetch Aphid (Megoura viciae)
The active compounds were formulated in 1:3 DMSO:water. Bean leaf disks were placed into microtiterplates filled with 0.8% agar-agar and 2.5 ppm OPUS™. The leaf disks were sprayed with 2.5 μl of the test solution and 5 to 8 adult aphids were placed into the microtiterplates which were then closed and kept at 22-24° C. and 35-45% under fluorescent light for 6 days. Mortality was assessed on the basis of vital, reproduced aphids. Tests were replicated twice.

As to `Clc1cccc(C(Cc2cc(Cl)c3ccccc3n2)NC2=NCCS2)c1Cl` (centres unmarked) [Compound Example 12], the melting point (as a rule, the temperature of the solid-liquid transition) lay within 71 to 73 °C.
The compound `Clc1cccc(C(Cc2cn(Cc3ccccc3)nn2)NC2=NCCS2)c1Cl` (centres unmarked) [Compound Example 35] had a melting point of 74 to 89 °C.
With `Clc1cccc(C(Cc2ccccn2)NC2=NCCS2)c1Cl` (centres unmarked) [compound 1], the mortality at 300 ppm in data set [1], in data set [2] and in data set [3] was over 80% throughout.
Consider `Cc1ccc(CC(NC2=NCCS2)c2cccc(Cl)c2Cl)nc1` (centres unmarked) [compound 3], for which the mortality at 300 ppm in data set [1], in data set [2] and in data set [3] was over 80% in each case.
For the compound `Cc1cccc(CC(NC2=NCCS2)c2cccc(Cl)c2Cl)n1` (centres unmarked) [compound 4], the mortality at 300 ppm in data set [1], in data set [2] and in data set [3] was over 80% throughout.
As for `Cc1cc(C)nc(CC(NC2=NCCS2)c2cccc(Cl)c2Cl)c1` (centres unmarked) [compound 6], the mortality at 300 ppm in data set [1], in data set [2] and in data set [3] was over 80% in each case. Also, the mortality (commonly the share of the test organisms that died) at 2500 ppm in data set [4] is over 80%.
Regarding `Clc1cccc(C(Cc2nccc3ccccc23)NC2=NCCS2)c1Cl` (centres unmarked) [compound 8], the mortality at 300 ppm in data set [1], in data set [2] and in data set [3] was over 80% in each case. Further, the mortality at 2500 ppm in data set [4] is over 80%.
As for `Clc1cccc(C(Cc2ccc3ccccc3n2)NC2=NCCS2)c1Cl` (centres unmarked) [compound 9], the mortality at 300 ppm in data set [1], in data set [2] and in data set [3] was over 80% in each case. Besides, the mortality at 2500 ppm in data set [4] is over 80%.
Regarding `Clc1cccc(C(Cc2cccnc2)NC2=NCCS2)c1Cl` (centres unmarked) [compound 13], the mortality at 300 ppm in data set [2] is over 80%.
Regarding `Cc1cc(CC(NC2=NCCS2)c2cccc(Cl)c2Cl)on1` (centres unmarked) [compound 23], in data set [3], the mortality at 300 ppm was over 80%.
In the case of `CCc1cc(CC(NC2=NCCS2)c2cccc(Cl)c2Cl)on1` (centres unmarked) [compound 24], the mortality at 300 ppm in data set [1] and in data set [2] was over 80% throughout.
As for `Cc1nc(CC(NC2=NCCS2)c2cccc(Cl)c2Cl)oc1C` (centres unmarked) [compound 31], the mortality at 300 ppm in data set [3] is over 80%.
In the case of `c1ccc(C(Cc2ccco2)NC2=NCCS2)cc1` (centres unmarked) [compound 38], the mortality at 300 ppm in data set [1] and in data set [2] was over 80% each time.
Turning to `c1ccc(C(Cc2cccs2)NC2=NCCS2)cc1` (centres unmarked) [compound 39], the mortality at 300 ppm in data set [1] and in data set [2] was over 80% each time.
